Measured values reported in PubChem BioAssay (NCI).
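Step 1: Grow cells in 96-well plates. Step 2: Expose to compound for 48 hours at 5 concentrations. Step 3: Interpolate endpoints linearly; if unreached, use highest concentration. GI50 marks 50% less growth. TGI denotes the concentration required for complete inhibition of growth.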

Assays:
Test in all cases: NCI-60 cell line screen, 48 h
HCT-116 colon = system: HCT-116 colon
HOP-62 NSCLC = system: HOP-62 NSCLC
HOP-92 NSCLC = system: HOP-92 NSCLC
HT29 colon = system: HT29 colon
MALME-3M melanoma = system: MALME-3M melanoma
NCI-H460 lung = system: NCI-H460 lung
NCI-H522 lung = system: NCI-H522 lung
OVCAR-5 ovarian = system: OVCAR-5 ovarian
SK-MEL-2 melanoma = system: SK-MEL-2 melanoma
UACC-257 melanoma = system: UACC-257 melanoma

CC(C)(C)c1[nH]nc2c1C(c1cc3ccccc3[nH]c1=O)Nc1cc(C(=O)OCc3ccccc3)ccc1N2 (stereo not given)
GI50 (HCT-116 colon): 3.2 µM
TGI (HCT-116 colon): > 100 µM
GI50 (HOP-62 NSCLC): 6.37 µM
TGI (HOP-62 NSCLC): > 100 µM
GI50 (HOP-92 NSCLC): 1350 nM
TGI (HOP-92 NSCLC): 8.34 µM
GI50 (HT29 colon): 2750 nM
TGI (HT29 colon): 6.52 µM
GI50 (MALME-3M melanoma): 2490 nM
TGI (MALME-3M melanoma): 7.47 µM
GI50 (NCI-H460 lung): 3.14 µM
TGI (NCI-H460 lung): > 100 µM
GI50 (NCI-H522 lung): 3.11 µM
TGI (NCI-H522 lung): 8.78 µM
GI50 (OVCAR-5 ovarian): 4.05 µM
TGI (OVCAR-5 ovarian): > 100 µM
GI50 (SK-MEL-2 melanoma): 3.33 µM
TGI (SK-MEL-2 melanoma): 7.28 µM
GI50 (UACC-257 melanoma): 2710 nM
TGI (UACC-257 melanoma): > 100 µM
